Experimental data reported in publication PMC5643462, “Encrypted Antimicrobial Peptides from Plant Proteins” (Scientific Reports, 2017).
≈ marks a conversion by molar mass, not a printed value. Where two headings read alike, the source gives them in different places. No end group written: not given here.

Experiments:
Cryptococcus neoformans = test: microbe, parasite or virus in culture; details: for Minimum inhibitory concentration, Cryptococcus neoformans: ATCC 28957, RPMI 1640 pH 7.0, 37 °C, 72 h, start 2.5 x 10^3 cells, 256-0.5 µM, mean ± SD of 3 biological repetitions (SD 0 not displayed), N/A = no antimicrobial activity observed
Experimental: (§1) The susceptibility test of microorganisms was performed to evaluate the inhibitory activity of the IAPs. Protocols M7-A10[50], M27-A3[51] and M38-A2[52] from Clinical & Laboratory Standards Institute (CLSI) were used for bacteria, yeasts and filamentous fungi tests, respectively. Briefly, different concentration of IAPs (256-0.5 µM) were tested against 16 microorganisms, in a final volume of 100 µL. Media conditions, final cell concentration and incubation conditions are presented in Supplementary Material 07, Table S5. Three biological repetitions, with 2 technical replicates each, were performed for each test, on polystyrene flat-bottom 96 wells microplates. The minimum inhibitory concentration (MIC) was defined as the concentration that no cells/hyphae were detected when visualized by optical microscopy.
(§2) Supplementary Material 07, Table S5
(§3) Table S5. Microorganisms and growth conditions.

Candida albicans = test: microbe, parasite or virus in culture; details: for Minimum inhibitory concentration, Candida albicans: ATCC 90028, RPMI 1640 pH 7.0, 37 °C, 48 h, start 2.5 x 10^3 cells, 256-0.5 µM, mean ± SD of 3 biological repetitions (SD 0 not displayed), no cells seen by optical microscopy, N/A = no antimicrobial activity observed
Experimental: as §1, §2, §3

human red blood cells = test: Cytotoxicity: hemolysis of human red blood cells; assay type: cell-based
Experimental: The cytotoxicity of the selected IAPS was performed using human red blood cells in strict accordance with relevant guidelines and regulations (Ethical committee – UnB # 1.939.989). Different concentrations of IAPs (128 µM–0.5 µM) were incubated with a final concentration of 2.5 × 10^5 red blood cells.mL^−1. Briefly, 100 µL of red blood cells was incubated with 100 µL of different concentrations of each IAP, prepared in PBS, for 30 minutes at 37 °C, with constant shaking at 120 rpm. PBS and Triton X-100 0.1% (v/v) were used as negative and positive controls, respectively. After incubation, the solution was centrifuged at 900 × g for five minutes followed by transferring 50 µL of the supernatant to flat-bottom polystyrene 96-well micro plates containing 50 µL of PBS. Microplate reading was performed at a BioTek Multireader, using a wavelength of 540 nm. All tests were performed in 3 biological replicates, composed of 3 biological repetitions each. The obtained data was subtracted by the negative control and relative to the positive control, defined as 100% lysis.

Bacillus cereus = test: microbe, parasite or virus in culture; details: ATCC 14579; Mueller-Hinton; 37 °C, 24 h; start 5.0 x 10^5 cells; 256-0.5 µM; mean ± SD of 3 biological repetitions (SD 0 not displayed); N/A = no antimicrobial activity observed
Experimental: as §1, §2, §3

Escherichia coli = test: microbe, parasite or virus in culture; details: ATCC 25922; Mueller-Hinton; 37 °C, 24 h; start 5.0 x 10^5 cells; 256-0.5 µM; mean ± SD of 3 biological repetitions (SD 0 not displayed); N/A = no antimicrobial activity observed
Experimental: as §1, §2, §3

Bacillus subtilis = test: microbe, parasite or virus in culture; details: ATCC 23857; Mueller-Hinton; 37 °C, 24 h; start 5.0 x 10^5 cells; 256-0.5 µM; mean ± SD of 3 biological repetitions (SD 0 not displayed); N/A = no antimicrobial activity observed
Experimental: as §1, §2, §3

Staphylococcus aureus = test: microbe, parasite or virus in culture; details: ATCC 25923; Mueller-Hinton; 37 °C, 24 h; start 5.0 x 10^5 cells; 256-0.5 µM; mean ± SD of 3 biological repetitions (SD 0 not displayed); N/A = no antimicrobial activity observed
Experimental: as §1, §2, §3

Pseudomonas aeruginosa = test: microbe, parasite or virus in culture; details: ATCC 27853; Mueller-Hinton; 37 °C, 24 h; start 5.0 x 10^5 cells; 256-0.5 µM; mean ± SD of 3 biological repetitions (SD 0 not displayed); N/A = no antimicrobial activity observed
Experimental: as §1, §2, §3

[1] = system: Moniliophthora perniciosa basidiospores; test: Inhibition of M. perniciosa basidiospore germination; assay type: cell-based; details: 1 × 10^6 basidiospores mL^−1, one hour with peptide (256-0.5 µM), 24 °C, counted after 4 hours on agar slides, biological triplicates; for IC50: concentration at which at least 50% of basidiospores germination was inhibited, read-out: Inhibitory concentration IC50, M. perniciosa basidiospores germination; for Inhibitory concentration IC95, M. perniciosa basidiospores germination: concentration at which at least 95% of basidiospores germination was inhibited
Experimental: The antimicrobial potential of T. cacao IAPs for inhibiting M. perniciosa basidiospores was evaluated. Briefly, 1 × 10^6 basidiospores mL^−1 were incubated for one hour with different concentrations of T. cacao IAPs (256-0.5 µM), at 24 °C, in a final volume of 100 µL. Autoclaved dH20 was used as a control. After incubation, 3 droplets of 10 µL each were placed in a slide coated with agar (1.2% (w/v)). Slides were incubated for 4, 24 and 48 hours at 24 °C. Slides were visualized using a DMRXA light microscope (Leica). Approximately 150–200 basidiospores per droplet from each time point were counted and compared to the control condition, which was defined as 100% germination. All experiments were performed in biological triplicates, with 3 technical repetitions each.

[2] = SC50 = IAP concentration that at least 50% of red blood cells remain intact, 128 µM–0.5 µM tested, PBS, 30 minutes, 37 °C, absorbance 540 nm

| Molecule | Hemolytic activity (% ± SD) at 1 µM (human red blood cells) [%] | Hemolytic activity (% ± SD) at 2 µM (human red blood cells) [%] | Hemolytic activity (% ± SD) at 4 µM (human red blood cells) [%] | Hemolytic activity (% ± SD) at 8 µM (human red blood cells) [%] | Hemolytic activity (% ± SD) at 16 µM (human red blood cells) [%] | Hemolytic activity (% ± SD) at 32 µM (human red blood cells) [%] | Hemolytic activity (% ± SD) at 64 µM (human red blood cells) | Hemolytic activity (% ± SD) at 128 µM (human red blood cells) [%] | Hemolytic activity of human red blood cells (%) SC50 (human red blood cells) [µM] | Minimum inhibitory concentration, Cryptococcus neoformans (Cryptococcus neoformans) [µM] | Minimum inhibitory concentration, Bacillus cereus (Bacillus cereus) [µM] | Minimum inhibitory concentration, Candida albicans (Candida albicans) [µM] | Minimum inhibitory concentration, Escherichia coli (Escherichia coli) [µM] | Minimum inhibitory concentration, Bacillus subtilis (Bacillus subtilis) [µM] | Minimum inhibitory concentration, Staphylococcus aureus (Staphylococcus aureus) [µM] | Minimum inhibitory concentration, Pseudomonas aeruginosa (Pseudomonas aeruginosa) [µM] | IC50 [1] [µM] | Inhibitory concentration IC95, M. perniciosa basidiospores germination [1] [µM] | further results |
| --- | --- | --- | --- | --- | --- | --- | --- | --- | --- | --- | --- | --- | --- | --- | --- | --- | --- | --- | --- |
| OC(Cn1cncn1)(Cn1cncn1)c1ccc(F)cc1F [Fluconazole, reference compound] |  |  |  |  |  |  |  |  |  |  |  |  |  |  |  |  |  |  | MIC (Cryptococcus neoformans; Cryptococcus neoformans, ATCC28957, 72 h, pH 7, read-out: Minimum inhibitory concentration, Cryptococcus neoformans): 1.63 µM (≈ 0.499 µg/mL); MIC (Candida albicans; Candida albicans, ATCC90028, 48 h, pH 7, read-out: Minimum inhibitory concentration, Candida albicans): 1.63 µM (≈ 0.499 µg/mL) |
| GFKLGRKLVKVFKWII-NH2 [Gr01] | 0.09 ± 0.01 | 0.00 ± 0.00 | 0.30 ± 0.15 | 1.96 ± 0.89 | 3.82 ± 1.28 | 11.33 ± 1.66 | 33.9 9 ± 5.46% | 51.72 ± 7.33 | 64 | 1.0 | 1.0 | 1.0 | 0.5 | 1.0 | 0.83 ± 0.29 | 3.33 ± 1.15 |  |  | Concentration that induced 50% hemolysis (human red blood cells; red cells of human): 64 µM |
| GLWSTIKQKGKEAAIAAAKAAGQAALGAL-NH2 [DS01, Dermaseptin DS01, reference compound] | 0.00 ± 0.00 | 0.19 ± 0.02 | 0.17 ± 0.04 | 0.03 ± 0.01 | 0.48 ± 0.12 | 0.79 ± 0.30 | 3.70 ± 1.34% |  |  |  |  |  |  |  |  |  | 128 | 256 | Hemolytic activity of human red blood cells (%) SC50 (human red blood cells; [2]): >128 µM |
| GSLHGFMYKYLKNMVLNLF-NH2 [Tc06] | 0.00 ± 0.00 | 0.00 ± 0.00 | 0.00 ± 0.00 | 0.00 ± 0.00 | 0.01 ± 0.00 | 0.77 ± 0.23 | 1.18 ± 0.23% | 7.67 ± 1.69 | >128 |  |  |  |  |  |  |  | 32 | 64 |  |
| GSLHGFMYKYLKTLVLRLY-NH2 [Zm01] | 0.00 ± 0.00 | 0.02 ± 0.00 | 0.00 ± 0.00 | 0.00 ± 0.00 | 0.66 ± 0.14 | 2.45 ± 1.03 | 6.56 ± 1.87% | 15.72 ± 3.48 | >128 | 4.0 | 64.0 | 6.67 ± 2.31 | 13.33 ± 4.61 | 8.0 | 16 | 16.0 |  |  |  |
| GSLHGFMYRYLKNMVLNLF-NH2 [Cs01] | 0.10 ± 0.04 | 0.05 ± 0.03 | 0.01 ± 0.00 | 0.09 ± 0.01 | 0.27 ± 0.09 | 0.31 ± 0.15 | 2.18 ± 1.62% | 8.01 ± 2.16 | >128 | 8.0 | 64.0 | 2.67 ± 1.15 | 32.0 | 8.0 | 4.0 | 32.0 |  |  |  |
| IVNHLVKLFDKGLNSIVNLR-NH2 [Tc05] | 0.11 ± 0.02 | 0.07 ± 0.01 | 0.15 ± 0.05 | 0.07 ± 0.04 | 0.50 ± 0.10 | 0.21 ± 0.09 | 0.78 ± 0.47% |  |  |  |  |  |  |  |  |  | 128 | 256 | Hemolytic activity of human red blood cells (%) SC50 (human red blood cells; [2]): >128 µM |
